Assay results reported in patent EP4596574A1, “GLP-1/GCG/GIP TRIPLE-RECEPTOR AGONIST AND USE THEREOF” (Sunshine Lake Pharma Co., Ltd., priority 2022, dated 2024).
“Also recorded” adds a separate entry of the source. Marks after values point to notes of the source that are not given here.

How the values were obtained:
GLP-1R = molecular target: T1, GLP-1R (Homo sapiens, UniProt P43220); assay: In vitro cell activity, cAMP production in HEK293 cells expressing GLP-1R; assay type: cell-based
T1 construct: expressed in transfected cells; host or cells: HEK293 (HEK293-GLP-1R)
Outline: (§1)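 Assay format: cells at 4×10^5 cells/mL, cAMP sensed by d2/cryptate FRET pair, dual-wavelength read at 665 and 620 nm. Potency expressed as EC50 from nonlinear fitting.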

[1] = In vivo efficacy evaluation in db/db mouse model (blood glucose); parameters: species or system db/db mice
Experimental: Blood glucose was tested before each administration.

GCGR = molecular target: T2, GCGR (Homo sapiens, UniProt P47871); assay: In vitro cell activity, cAMP production in HEK293 cells expressing GCGR; assay type: cell-based
T2 construct: expressed in transfected cells; host or cells: HEK293 (HEK293-GCGR)
Outline: as §1

[2] = Long-term repeated administration in diet-induced obese C57BL/6 mice (DIO); assay type: in vivo, C57/BL6 mice
GIPR = molecular target: T3, GIPR (Homo sapiens, UniProt P48546); assay: In vitro cell activity, cAMP production in HEK293 cells expressing GIPR; assay type: cell-based
T3 construct: expressed in transfected cells; host or cells: HEK293 (HEK293-GIPR)
T3 sequence (P48546 22-466): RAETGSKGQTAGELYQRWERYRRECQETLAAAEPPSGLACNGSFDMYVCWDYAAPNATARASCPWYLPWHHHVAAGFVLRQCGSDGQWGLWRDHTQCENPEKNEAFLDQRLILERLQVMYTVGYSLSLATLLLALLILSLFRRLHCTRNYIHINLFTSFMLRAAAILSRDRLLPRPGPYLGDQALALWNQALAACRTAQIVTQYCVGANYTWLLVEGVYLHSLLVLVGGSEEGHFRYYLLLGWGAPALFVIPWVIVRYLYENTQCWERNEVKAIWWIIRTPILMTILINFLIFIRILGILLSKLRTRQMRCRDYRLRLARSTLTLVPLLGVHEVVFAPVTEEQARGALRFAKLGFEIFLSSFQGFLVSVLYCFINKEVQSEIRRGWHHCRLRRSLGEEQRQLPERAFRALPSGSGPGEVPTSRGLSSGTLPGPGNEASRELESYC
Outline: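 cAMP accumulation is quantified by homogeneous TR-FRET (cAMP-d2 plus anti-cAMP cryptate) in GIPR-expressing HEK293 cells seeded from a 4×10^5 cells/mL suspension and treated with compound. The signal ratio is plotted against concentration and fitted to a four-parameter curve to give EC50.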

[3] = 10 nmol/kg s.c. once every 3 days, D7
[4] = 10 nmol/kg s.c. once every 3 days, D10
[5] = 10 nmol/kg s.c. once every 3 days, D13
[6] = 10 nmol/kg s.c. once every 3 days, D16
[7] = 10 nmol/kg s.c. once every 3 days, D19
[8] = 10 nmol/kg s.c. once every 3 days, D22
[9] = 10 nmol/kg s.c. once every 3 days, D25
[10] = 10 nmol/kg s.c. once every 3 days, D28
[11] = after 4 weeks of administration
[12] = after 4 weeks of administration, same dose
[13] = long-term administration 10 nmol/kg, 72 h after the last administration
[14] = long-term administration 10 nmol/kg, blood biochemical index

T1 sequence (P43220 24-463, species assumed): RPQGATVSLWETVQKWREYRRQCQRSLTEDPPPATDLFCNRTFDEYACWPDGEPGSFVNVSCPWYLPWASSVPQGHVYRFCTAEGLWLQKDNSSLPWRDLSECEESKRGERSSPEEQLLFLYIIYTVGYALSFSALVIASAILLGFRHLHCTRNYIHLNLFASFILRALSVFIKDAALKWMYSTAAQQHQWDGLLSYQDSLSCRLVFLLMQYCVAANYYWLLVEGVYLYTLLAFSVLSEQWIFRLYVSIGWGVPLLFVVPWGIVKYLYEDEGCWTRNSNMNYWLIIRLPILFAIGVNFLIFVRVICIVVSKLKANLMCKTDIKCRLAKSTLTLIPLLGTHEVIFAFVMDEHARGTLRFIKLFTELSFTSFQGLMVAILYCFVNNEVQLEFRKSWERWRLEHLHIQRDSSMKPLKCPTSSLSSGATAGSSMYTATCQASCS
T2 sequence (P47871 26-477, species assumed): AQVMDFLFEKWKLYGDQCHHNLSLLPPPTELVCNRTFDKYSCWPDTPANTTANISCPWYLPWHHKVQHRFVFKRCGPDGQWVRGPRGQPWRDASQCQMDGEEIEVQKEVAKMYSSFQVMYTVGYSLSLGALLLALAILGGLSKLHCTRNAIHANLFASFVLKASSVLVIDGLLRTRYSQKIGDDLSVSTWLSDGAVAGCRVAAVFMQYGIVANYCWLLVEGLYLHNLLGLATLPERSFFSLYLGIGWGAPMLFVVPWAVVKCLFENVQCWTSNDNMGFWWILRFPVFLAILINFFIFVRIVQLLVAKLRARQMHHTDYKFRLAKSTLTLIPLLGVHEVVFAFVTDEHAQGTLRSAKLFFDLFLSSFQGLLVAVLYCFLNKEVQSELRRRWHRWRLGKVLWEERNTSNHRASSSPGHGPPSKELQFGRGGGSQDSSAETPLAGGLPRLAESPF

For `CC[C@H](C)[C@H](NC(=O)[C@H](Cc1ccccc1)NC(=O)[C@H](C)NC(=O)[C@H](CCCNC(=N)N)NC(=O)[C@H](CCC(N)=O)NC(=O)[C@H](CCCNC(=N)N)NC(=O)[C@H](CCCCNC(=O)COCCOCCNC(=O)CC[C@H](NC(=O)CCCCCCCCCCCCCCCCCCC(=O)O)C(=O)O)NC(=O)[C@H](CCC(=O)O)NC(=O)[C@H](CC(=O)O)NC(=O)[C@H](CC(C)C)NC(=O)[C@H](CC(C)C)NC(=O)[C@@H](NC(=O)[C@H](CO)NC(=O)[C@H](Cc1ccc(O)cc1)NC(=O)[C@H](CC(=O)O)NC(=O)[C@H](CO)NC(=O)[C@@H](NC(=O)[C@](C)(Cc1ccccc1F)NC(=O)[C@@H](NC(=O)CNC(=O)[C@H](CCC(N)=O)NC(=O)C(C)(C)NC(=O)[C@@H](N)Cc1ccc(O)cc1)[C@@H](C)O)[C@@H](C)O)[C@@H](C)CC)C(=O)N[C@@H](CCC(=O)O)C(=O)N[C@@H](Cc1ccc(O)cc1)C(=O)N[C@@H](CC(C)C)C(=O)N[C@@H](CC(C)C)C(=O)N[C@@H](C)C(=O)NCC(=O)NCC(=O)N1CCC[C@H]1C(=O)N[C@@H](CO)C(=O)N[C@@H](CO)C(=O)NCC(=O)N[C@@H](C)C(=O)N1CCC[C@H]1C(=O)N1CCC[C@H]1C(=O)N1CCC[C@H]1C(=O)N[C@@H](CO)C(=O)O` [HEC-PT86], the EC50 (GLP-1R) was 0.158 nM, the “blood glucose after administration” value ([1]; db/db mice, 10 nmol/kg) was “significantly reduce blood glucose” and the “Random blood glucose (mM) D0” value ([1]; db/db mice, 10 nmol/kg s.c. once every three days, D0 (before first dose)) was 27.3 ± 3.6 mM. For the same compound, the “Random blood glucose (mM) D3” value ([1]; db/db mice, 10 nmol/kg s.c. once every three days, D3) was 9.2 ± 5.6 mM, the “Random blood glucose (mM) D4” value ([1]; db/db mice, 10 nmol/kg s.c. once every three days, D4) was 16.2 ± 6.5 mM and the “Random blood glucose (mM) D5” value ([1]; db/db mice, 10 nmol/kg s.c. once every three days, D5) was 18.8 ± 5.7 mM. For the same compound, the “Random blood glucose (mM) D6” value ([1]; db/db mice, 10 nmol/kg s.c. once every three days, D6) was 23.0 ± 3.7 mM, the “Random blood glucose (mM) D7” value ([1]; db/db mice, 10 nmol/kg s.c. once every three days, D7) was 21.0 ± 4.4 mM and the “Random blood glucose (mM) D10” value ([1]; db/db mice, 10 nmol/kg s.c. once every three days, D10) was 9.1 ± 2.3 mM. The “Random blood glucose (mM) D13” value ([1]; db/db mice, 10 nmol/kg s.c. once every three days, D13) was 9.6 ± 3.2 mM, the “Random blood glucose (mM) D16” value ([1]; db/db mice, 10 nmol/kg s.c. once every three days, D16) was 8.4 ± 1.7 mM and the “Random blood glucose (mM) D19” value ([1]; db/db mice, 10 nmol/kg s.c. once every three days, D19) was 12.0 ± 3.3 mM. The “Random blood glucose (mM) D22” value ([1]; db/db mice, 10 nmol/kg s.c. once every three days, D22) was 11.6 ± 3.8 mM, the “Random blood glucose (mM) D25” value ([1]; db/db mice, 10 nmol/kg s.c. once every three days, D25) was 13.1±3.3^a mM and the “Random blood glucose (mM) 6 h” value ([1]; db/db mice, 10 nmol/kg s.c., 6 h) was 15.4 ± 4.4 mM. For the same compound, the “Random blood glucose (mM) 24 h” value ([1]; db/db mice, 10 nmol/kg s.c., 24 h) was 6.5 ± 1.4 mM, the “Random blood glucose (mM) 48 h” value ([1]; db/db mice, 10 nmol/kg s.c., 48 h) was 7.9 ± 2.8 mM and the “time at which blood glucose levels reached the lowest level” value ([1]; db/db mice, 10 nmol/kg, after administration) was “about 24 hours”. For the same compound, the “blood glucose lowering after long-term administration compared with LY3298176” value ([1]; db/db mice, long-term repeated administration) was “better than that of the LY3298176 group; also recorded: better hypoglycemic effect than LY3298176”, the “blood glucose reducing effect after administration compared with LY3298176” value ([1]; db/db mice, same dose 10 nmol/kg) was “slightly better than the positive control LY3298176” and the “blood glucose level after long-term administration” value ([1]; type II diabetes model db/db mice) was “significantly improve the blood glucose level”. The EC50 (GCGR) was 0.806 nM, the “Cumulative food intake (g/pcs) D7” value [2, 3] was 8.4 g/pcs and the “Weight gain rate (%) D7” value [2, 3] was -17.8±5.8%. For the same compound, the “Cumulative food intake (g/pcs) D10” value [2, 4] was 11.6 g/pcs, the “Weight gain rate (%) D10” value [2, 4] was -23.5±6.6% and the “Cumulative food intake (g/each) D13” value [2, 5] was 14.5 g/each. For the same compound, the “Weight gain rate (%) D13” value [2, 5] was -26.1±7.2%, the “Cumulative food intake (g/each) D16” value [2, 6] was 19.3 g/each and the “Weight gain rate (%) D16” value [2, 6] was -27.9±7.6%. The “Cumulative food intake (g/each) D19” value [2, 7] was 24.5 g/each, the “Weight gain rate (%) D19” value [2, 7] was -29.2±8.1% and the “Cumulative food intake (g/each) D22” value [2, 8] was 30.4 g/each. For the same compound, the “Weight gain rate (%) D22” value [2, 8] was -29.3±7.2%, the “Cumulative food intake (g/each) D25” value [2, 9] was 36.6 g/each and the “Weight gain rate (%) D25” value [2, 9] was -30.6±7.0%. For the same compound, the “Cumulative food intake (g/each) D28” value [2, 10] was 43.4 g/each, the “Weight gain rate (%) D28” value [2, 10] was -31.2±6.4% and the “Cumulative food intake (g/each) D30” value ([2]; 10 nmol/kg s.c. once every 3 days, D30) was 47.0^a g/each. The “Weight gain rate (%) D31” value ([2]; 10 nmol/kg s.c. once every 3 days, D31) was -30.9±6.4^a %, the “Cumulative food intake (g/pcs) D0” value ([2]; 10 nmol/kg s.c., D0) was 2.5 g/pcs and the “Weight gain rate (%) D0” value ([2]; 10 nmol/kg s.c., D0) was 0.0±0.0%. The “Cumulative food intake (g/pcs) D1” value ([2]; 10 nmol/kg s.c., D1) was 2.9 g/pcs, the “Weight gain rate (%) D1” value ([2]; 10 nmol/kg s.c., D1) was -6.0±0.8% and the “Cumulative food intake (g/pcs) D2” value ([2]; 10 nmol/kg s.c., D2) was 3.5 g/pcs. The “Weight gain rate (%) D2” value ([2]; 10 nmol/kg s.c., D2) was -8.8±1.4%, the “Cumulative food intake (g/pcs) D3” value ([2]; 10 nmol/kg s.c., D3) was 4.5 g/pcs and the “Weight gain rate (%) D3” value ([2]; 10 nmol/kg s.c., D3) was -9.9±1.6%. The “Cumulative food intake (g/pcs) D4” value ([2]; 10 nmol/kg s.c., D4) was 5.8 g/pcs, the “Weight gain rate (%) D4” value ([2]; 10 nmol/kg s.c., D4) was -10.6±2.9% and the “liver function and blood lipids of DIO mice” value [2, 11] was “significantly improved the liver function and blood lipids”. For the same compound, the “weight loss and food intake inhibition effects compared with Semaglutide” value [2, 11] was “superior to the positive drug Semaglutide”, the “food intake inhibition effect compared with LY3298176” value [2, 12] was “comparable to those of the same dose of the positive drug LY3298176” and the “weight loss effect compared with LY3298176” value [2, 12] was “comparable to those of the same dose of the positive drug LY3298176”. For the same compound, the Liver index/% [2, 13] was 2.7±0.0^a %, the Liver/g [2, 13] was 0.9±0.1^a g and the Weight/g [2, 13] was 32.3±4.4^a g. For the same compound, the “ALT (U/L)” value [2, 14] was 27.8±9.4^a U/L, the “AST (U/L)” value [2, 14] was 108.6±26.3^a U/L and the “CHOL (mmol/L)” value [2, 14] was 3.5±0.7^a mmol/L. The “TRIGL (mmol/L)” value [2, 14] was 0.6±0.1^a mmol/L and the EC50 (GIPR) was 0.113 nM.
